In patent US8486962B2, “Antifungal agents” (F2G Ltd., priority 2005, dated 2013):
Values after ≈ are worked out from the molar mass of the structure shown.

What was measured:
[1] = test system: Aspergillus flavus; assay: MIC, YAG medium, Aspergillus flavus; format: cell-based; details: Aspergillus flavus; YAG medium; read-out: MIC A Flavus 01
Outline: (§1)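 Doubling dilutions (50-0.05 mg/L) were tested against Candida in RPMI with 2% glucose and 0.135M MOPS, pH7.0, at 1-2×10^3 cfu/ml for 24-48 hrs, 35° C; MIC is >80% inhibition at OD485. Aspergillus in YAG medium at 1-2×10^4 cfu/ml for 24 hrs was scored at >70% inhibition; low MICs were retested over 0.5-0.0005 mg/L.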

[2] = test system: Aspergillus fumigatus AF293; assay: MIC, YAG medium, Aspergillus fumigatus AF293; format: cell-based; details: Aspergillus fumigatus, AF293; YAG medium; read-out: MIC A Fum. 293
Outline: as §1

[3] = test system: Aspergillus niger; assay: MIC, YAG medium, Aspergillus niger; format: cell-based; details: Aspergillus niger; YAG medium; read-out: MIC A Niger 1
Outline: as §1

[4] = test system: Aspergillus terreus; assay: MIC, YAG medium, Aspergillus terreus; format: cell-based; details: Aspergillus terreus; YAG medium; read-out: MIC A Terreus 4
Outline: as §1

[5] = test system: Aspergillus fumigatus AF210; assay: MIC, YAG medium, Aspergillus fumigatus AF210; format: cell-based; details: Aspergillus fumigatus, AF210; YAG medium; read-out: MIC A Fum. 210
Outline: as §1

[6] = test system: A Terreus 49; assay: MIC, YAG medium, A Terreus 49; format: cell-based, Aspergillus terreus; details: Aspergillus terreus; YAG medium; read-out: MIC A Terreus 49
Protocol: Measurement of Minimum Inhibitory Concentrations (MICs)
Between 1 and 5 mgs of compound were accurately weighed out into a sterile Eppendorf tube. The compound was dissolved in DMSO to give a solution containing 5 mg/ml. Tubes were stored at −20° C. until required.
On the day of testing thawed solutions were vortex mixed to ensure homogeneity. 30 μl of solution was removed and added to 570 μl of sterile water in a separate sterile Eppendorf. The thoroughly mixed solution was used to prepare a series of doubling dilutions in water, in a deep well plate. Eleven replicate plates were prepared using a Minitrak by aspirating 20 μl from each well into eleven clear polystyrene 96 well plates.
Spores of Aspergillus spp (Aspergillus fumigatus, Aspergillus terreus, Aspergillus niger and Aspergillus flavus) were harvested from cultures grown on Sabarauds agar for 5 days, and resuspended in PBS/Tween 80 to approx 1×10^7 cfu/ml Other filamentous fungi (Fusarium solani, Scedosporium spp., Trichophyton spp., Absidia corymbifera), were grown on Sabarauds agar for 2-10 days and spores/hyphae resuspended in PBS/Tween to give approx 1×10^7 cfU/ml. Candida species (Candida albicans, Candida glabrata, Candida krusei, Candida parapsilosis and Candida tropicalis) were grown on Sabarauds agar, cells were harvested from the agar using a sterile loop and resuspended in PBS/Tween 80 to approx 1×10^6 cfu/ml. Each organism suspension was diluted in RPMI medium, containing 2% glucose and 0.135M MOPS buffer (pH7.0) to 2×10^4 cfu/ml for Aspergillus spp and other filamentous fungi and 2×10^3 cfu/ml for yeast. 80 μl of an organism suspension was added to each well of the plate containing drug dilutions.
This produced MIC plates with a drug range 50-0.05 mg/L and organism inocula of 1-2×10^4 cfu/ml for Aspergillus spp and other filamentous fungi and 1-2×10^3 cfu/ml for yeasts. All plates were incubated for 24-48 hrs at 35° C. Growth was assessed by monitoring the optical density at 485 nm for each well. The MIC of a compound is the lowest drug concentration that inhibits growth of an organism by >80% compared with a drug free control. MICs are recorded as mg/L. Other growth media can be used for susceptibility testing, and the activity of the described compounds can also be assessed in a medium comprising, 1% glucose, 1% ammonium chloride and 0.5% yeast extract (YAG medium). To perform MIC tests in this medium, dilutions of compounds are prepared in microtitre plates as described above. Fungal strains to be tested are grown and harvested in an identical manner to that described above, each organism suspension is then diluted in YAG medium to 2×10^4 cfu/ml for Aspergillus spp and other filamentous fungi and 2×10^3 cfu/ml for yeast. 80 μl of an organism suspension was added to each well of the plate containing drug dilutions. This produced MIC plates with a drug range 50-0.05 mg/L and organism inocula of 1-2×10^4 cfu/ml for Aspergillus spp and other filamentous fungi and 1-2×10^3 cfu/ml for yeasts. All plates were incubated for 24 hrs at 35° C. Growth was assessed by monitoring the optical density at 485 nm for each well. The MIC of a compound is the lowest drug concentration that inhibits growth of an organism by >70% compared with a drug free control. MICs are recorded as mg/L. In cases where the MIC of an organism is […]0.05 mg/L the MIC is repeated using a concentration range of 0.5-0.0005 mg/L. MIC tests in YAG medium have more clear-cut endpoints and have slightly lower MICS than those performed in RPMI medium.
The following organisms were tested: Aspergillus fumigatus AF293 and Aspergillus fumigatus AF210, Aspergillus niger, Aspergillus terreus, Aspergillus favus, Candida albicans, Candida krusei, Candida tropicalis, Candida glabrata, Candida parapsilosis, Trichophyton rubrum, Trichophyton mentagrophytes, Scedosporium prolificans, Scedosporium apiospermum, Absidia corymbifera, Fusarium solani.

Row | SMILES | MIC [1] [µg/mL] | MIC [2] [µg/mL] | MIC [3] [µg/mL] | MIC [4] [µg/mL] | MIC [5] [µg/mL] | MIC [6] [µg/mL]
1 | COC(=O)c1cccc(NC(=O)C(=O)c2c(-c3ccccc3)cc3ccccn23)c1 [Example 141, 3-[2-Oxo-2-(2-phenyl-indolizin-3-yl)-acetylamino]-benzoic acid methyl ester] | 0.008 (≈ 0.0201 µM) | 0.12 (≈ 0.301 µM) | 0.25 (≈ 0.627 µM) | 0.031 (≈ 0.0778 µM) | 0.12 (≈ 0.301 µM) | 0.015 (≈ 0.0376 µM)
2 | CCCOC(=O)c1ccc(NC(=O)C(=O)c2c(-c3ccccc3)cc3ccccn23)cc1 [Example 143, 4-[2-Oxo-2-(2-phenyl-indolizin-3-yl)-acetylamino]-benzoic acid propyl ester] | 0.031 (≈ 0.0727 µM) | 0.061 (≈ 0.143 µM) | 0.015 (≈ 0.0352 µM) | 0.031 (≈ 0.0727 µM) | 0.06 (≈ 0.141 µM) | 0.008 (≈ 0.0188 µM)
3 | CCCCOC(=O)c1ccc(NC(=O)C(=O)c2c(-c3ccccc3)cc3ccccn23)cc1 [Example 144, 4-[2-Oxo-2-(2-phenyl-indolizin-3-yl)-acetylamino]-benzoic acid butyl ester] | 0.015 (≈ 0.0341 µM) | 0.06 (≈ 0.136 µM) | 0.008 (≈ 0.0182 µM) | 0.062 (≈ 0.141 µM) | 0.062 (≈ 0.141 µM) | 0.008 (≈ 0.0182 µM)
4 | COc1ccc(NC(=O)C(=O)c2c(-c3ccccc3)cc3ccccn23)c(OC)c1 [Example 145, N-(2,4-Dimethoxy-phenyl)-2-oxo-(2-phenyl-indolizin-3-yl)-acetamide] | 0.031 (≈ 0.0774 µM) | 0.5 (≈ 1.25 µM) | 0.031 (≈ 0.0774 µM) | 0.031 (≈ 0.0774 µM) | 0.5 (≈ 1.25 µM) | 0.004 (≈ 0.00999 µM)
5 | COc1ccc(NC(=O)C(=O)c2c(-c3ccccc3)cc3ccccn23)cn1 [Example 146, N-(6-Methoxy-pyridin-3-yl)-2-oxo-2-(2-phenyl-indolizin-3-yl)-acetamide] | 0.062 (≈ 0.167 µM) | 0.5 (≈ 1.35 µM) | 0.25 (≈ 0.673 µM) | 0.062 (≈ 0.167 µM) | 0.5 (≈ 1.35 µM) | 0.03 (≈ 0.0808 µM)
6 | COc1ccc(NC(=O)C(=O)c2c(-c3cccs3)cc3ccccn23)cc1 [Example 148, N-(4-Methoxy-phenyl)-2-oxo-2-(2-thiophen-2-yl-indolizin-3-yl)-acetamide] | 0.008 (≈ 0.0213 µM) | 0.12 (≈ 0.319 µM) | 0.062 (≈ 0.165 µM) | 0.008 (≈ 0.0213 µM) | 0.12 (≈ 0.319 µM) | 0.008 (≈ 0.0213 µM)
7 | COc1ccc(NC(=O)C(=O)c2c(-c3ccc(F)cc3)cc3ccccn23)c(OC)c1 [Example 149, N-(2,4-Dimethoxy-phenyl)-2-[2-(4-fluoro-phenyl)-indolizin-3-yl]-2-oxo-acetamide] | 0.031 (≈ 0.0741 µM) | 0.5 (≈ 1.19 µM) | 0.031 (≈ 0.0741 µM) | 0.06 (≈ 0.143 µM) | 1.6 (≈ 3.82 µM) | 0.031 (≈ 0.0741 µM)
8 | N#Cc1ccc(NC(=O)C(=O)c2c(-c3ccccc3)cc3ccccn23)cc1 [Example 150, N-(4-Cyano-phenyl)-2-oxo-2-(2-phenyl-indolizin-3-yl)-acetamide] | 0.125 (≈ 0.342 µM) | 1.6 (≈ 4.38 µM) | 0.25 (≈ 0.684 µM) | 0.5 (≈ 1.37 µM) | 1.6 (≈ 4.38 µM) | 0.12 (≈ 0.328 µM)
9 | COC(=O)c1csc(NC(=O)C(=O)c2c(-c3ccccc3)cc3ccccn23)c1 [Example 154, 5-[2-Oxo-2-(2-phenyl-indolizin-3-yl)-acetylamino]-thiophene-3-carboxylic acid methyl ester] | 0.25 (≈ 0.618 µM) | 1.6 (≈ 3.96 µM) | 0.05 (≈ 0.124 µM) | 0.8 (≈ 1.98 µM) | 1.6 (≈ 3.96 µM) | 0.12 (≈ 0.297 µM)
